Entries after “also recorded” stand apart in the source; their conditions may differ.
Assays:
Rat = assay: Ataxic gait after antagonist alone, bolus intravenous injection; format: in vivo; conditions: i.v.; only the opiate antagonist given
Description: Only the opiate antagonist was given to study the acute side effect liability. Relative to the other compounds tested, higher doses of R N-methylnalorphine were required to produce ataxia as compared with the other compounds, with the exception of R and S N-methylnalorphine. Animals showing ataxic gait walked unsteadily with a widespread placement of the feet in a staggering manner.

morphine-induced emesis = assay: Prevention of morphine-induced emesis in dogs; conditions: for Anti-emetic ED84 value: i.v. 5 minutes prior to morphine 0.7 mg/kg i.m., estimated dose that protects 84% of treated dogs
[1] = tested on: analgesic effects of morphine; assay: Antagonism of morphine analgesia, tail flick test in rats; conditions: i.v.; lowest dose significantly antagonizing morphine in the tail flick test
dogs = assay: Emesis produced by the antagonist by itself in dogs
[2] = tested on: morphine-induced constipation; assay: Gastrointestinal transit of a charcoal meal in morphine-treated mice; format: in vivo; conditions: morphine 3 mg/kg s.c.; charcoal meal by oral gavage; transit 25 minutes after charcoal
Description: Animals were give R N-methylnalorphine, then morphine 15 minutes later, followed by charcoal suspended in MC. Transit was measured 25 minutes after charcoal. * p<0.05 compared to morphine-treatment.
Morphine produces constipation, especially during chronic use. R N-methylnalorphine can also be used to treat constipation. […] These mice had reduced intestinal transit times of the charcoal gavage after morphine. The reduced rate of GI transit time produced by morphine is thought to be the basis of morphine's constipating effects in mammals, including man.

guinea pig ileum = conditions: cited from earlier work
[3] = tested on: cis-platinum-induced emesis; assay: Cis-platinum-induced emesis in dogs; format: in vivo; conditions: 0.5 mg/kg i.v.
Description: Ondasetron is used postoperatively to reduce the incidence of emesis during recovery from surgery, and to reduce nausea and vomiting of cancer patients who may be receiving chemotherapy with agents such as cis-platinum. It is not effective in all post surgical or cancer patients.

| SMILES | Minimum Dose to Produce Ataxic Gait In Rat (Rat) | Anti-emetic ED84 value (morphine-induced emesis) | Minimum Effective Dose to Antagonize Morphine Analgesia [1] | Effect on slowed gastrointestinal transit produced by morphine [2] | also measured |
| --- | --- | --- | --- | --- | --- |
| C=CC[N+]1(C)CC[C@]23c4c5ccc(O)c4O[C@H]2C(=O)CC[C@@]3(O)[C@H]1C5 (stereo partly drawn) [N-methylnaloxone] | 15 mg/kg i.v. | 0.18 mg/k i.v. mg/kg | 2.5 mg/kg i.v. |  |  |
| C=CC[N+]1(C)CC[C@]23c4c5ccc(O)c4O[C@H]2[C@@H](O)C=CC3[C@H]1C5 (stereo partly drawn) [S N-methylnalorphine] | 15 mg/kg i.v. |  |  | no effect | Emesis in % of animals (dogs; 0.5 mg/kg i.v., compound by itself): Emesis in 12.5% of animals at 0.5; Doses at which dogs demonstrated emesis (dogs; dog, in vivo, intravenous): > 0.5 mg/kg; Animals with emesis produced by the compound by itself (dogs; first pharmacological action): 1 out of 8; Agonist potency weaker than antagonist activity in vitro (guinea pig ileum): 10 fold; Agonist properties (guinea pig ileum; guinea pig ileum, not other tissues with mu receptors): very weak agonist properties; Block of morphine-induced emesis (morphine-induced emesis; doses tested up to 0.5 mg/kg i.v., morphine 0.7 mg/kg i.m., listed as S isomer of N-methylnalorphine): not active |
| C[N@+]1(CC2CC2)CC[C@]23c4c5ccc(O)c4O[C@H]2C(=O)CC[C@@]3(O)[C@H]1C5 [N-methylnaltrexone] | 15 mg/kg i.v. | 0.25 mg/kg i.v. | 15 mg/kg i.v. |  |  |
| Cc1nccn1CC1CCc2c(c3ccccc3n2C)C1=O (stereo not drawn) [ondansetron] |  |  |  |  | Protection from cis-platinum-induced emesis [3]: completely protects; Protection from the emetic effects of morphine (morphine-induced emesis; 0.5 mg/kg i.v., morphine 0.7mg/kg i.m.): failed to protect any dogs |
| C=CC[N@@+]1(C)CC[C@]23c4c5ccc(O)c4O[C@H]2[C@@H](O)C=C[C@H]3[C@H]1C5 [R N-methylnalorphine, (5α,6α,17R)-7,8-didehydro-4,5-epoxy-3,6-dihydroxy-17-methyl-17-(2-propenyl)morphinanium chloride] | 30 mg/kg i.v. | 0.11 mg/kg i.v. | 30.0 mg/kg i.v. | reversal of the slowed transit time produced by morphine; also recorded: dose-dependent increase in gastrointestinal transit | Anti-emetic ED84 value (morphine-induced emesis; listed as compound of Formula (I)): 0.11 mg/kg |

Reference: patent publication US6455537B1, “Methods for treating opiate intolerance” (priority 1999, dated 2002)
